We go through two substances from patent US12383520B2, “Compound and composition for use in the treatment of premenstrual syndrome and/or premenstrual dysphoric disorder” (SYNAPHARM […], priority 2019, dated 2025).

Data set [1] can be described thus: treatment of premenstrual syndrome and/or premenstrual dysphoric disorder (reduction of symptoms). The data set is classed as in vivo. The conditions noted are these: compared with other compounds, particularly other magnesium salts (like magnesium oxide).
Data set [2] can be described thus: stability over time of dihydrate versus anhydrous form. The data set is classed as physicochemical. Conditions: compared to non-dihydrate (anhydrous) magnesium N-acetyl-taurinate.

On to magnesium N-acetyl-taurinate, for which, in data set [1], the “effectiveness (reduction of symptoms) in the treatment of premenstrual syndrome and/or premenstrual dysphoric disorder” value is “more effective (reduction of symptoms) than the other compounds”.

With magnesium N-acetyl-taurinate dihydrate, the stability over time entry in data set [2] was “increased as compared to non-dihydrate magnesium N-acetyl-taurinate”.
